Results published in article PMC9127750, “Structure-based design of CDC42 effector interaction inhibitors for the treatment of cancer” (Cell reports, 2022).
“And” between values parts separate entries of the source, which are not always exact repeats. Equal values may be shown once.

System: WM3248 melanoma cells, 486 antibodies
Test: Reverse phase protein arrays (RPPA)
Format: cell-based, Human
Description: Pellets were snap frozen in liquid nitrogen and shipped to MD Anderson Cancer Center core RPPA facility for RPPA analysis (Table S5). Three biological replicates for each sample were generated.
Nomenclatures on the RPPA heatmaps: name_of_antibody.species_of_antibody.status_of_antibody. V - antibody validated; C - validation of antibody in progress; Q - antibody nonspecific; E – under evaluation; antibodies raised in M - mouse, G - goat, R - rabbit, or T - rat.

[1] = Norm_20: replicates 1-3 and Average, relative to 0

`CN(C)c1cccc(Nc2cc(-c3ccccc3)nc(C3CCNCC3)n2)c1` [ARN22089, N1,N1-dimethyl-N3-(6-phenyl-2-(piperidin-4-yl)pyrimidin-4-yl)benzene-1,3-diamine] was tested, and the “PEA.15.R.V Average” value (Norm_20, normalized to Norm_0) was 1.052, the “PEA.15_pS116.R.V Average” value (Norm_20, normalized to Norm_0) was 0.946 and the “PERK.R.V Average” value (Norm_20, normalized to Norm_0) was 1.025. For the same compound, the “PGM1.R.V Average” value (Norm_20, normalized to Norm_0) was 0.977, the “PHGDH.R.C Average” value (Norm_20, normalized to Norm_0) was 1.014 and the “PHLPP.R.V Average” value (Norm_20, normalized to Norm_0) was 1.227. For the same compound, the “PI3K.p85.R.C Average” value (Norm_20, normalized to Norm_0) was 0.845, the “PI3K.p110.a.R.C Average” value (Norm_20, normalized to Norm_0) was 0.888 and the “PI3K.p110.b.M.C Average” value (Norm_20, normalized to Norm_0) was 0.953. For the same compound, the “PKA.a.R.V Average” value (Norm_20, normalized to Norm_0) was 0.999, the “PKC.a.b.II_pT638_T641.R.V Average” value (Norm_20, normalized to Norm_0) was 0.901 and the “PKC.b.II_pS660.R.V Average” value (Norm_20, normalized to Norm_0) was 1.030. The “PKCa.R.V Average” value (Norm_20, normalized to Norm_0) was 1.322, the “PKM2.R.C Average” value (Norm_20, normalized to Norm_0) was 1.001 and the “PLK1.R.C Average” value (Norm_20, normalized to Norm_0) was 0.902. The “PMS2.R.V Average” value (Norm_20, normalized to Norm_0) was 0.963, the “PR.R.V Average” value (Norm_20, normalized to Norm_0) was 0.888 and the “PRAS40.M.C Average” value (Norm_20, normalized to Norm_0) was 1.217. For the same compound, the “PRAS40_pT246.R.V Average” value (Norm_20, normalized to Norm_0) was 1.170, the “PRC1_pT481.R.C Average” value (Norm_20, normalized to Norm_0) was 1.054 and the “Patched.R.C Average” value (Norm_20, normalized to Norm_0) was 1.056. For the same compound, the “Paxillin.R.C Average” value (Norm_20, normalized to Norm_0) was 0.857, the “Pdcd4.R.C Average” value (Norm_20, normalized to Norm_0) was 0.984 and the “Porin.M.V Average” value (Norm_20, normalized to Norm_0) was 1.080. For the same compound, the “p21.R.C Average” value (Norm_20, normalized to Norm_0) was 0.757, the “p27.Kip1.R.C Average” value (Norm_20, normalized to Norm_0) was 1.199 and the “p27_pT157.R.C Average” value (Norm_20, normalized to Norm_0) was 1.392. The “p27_pT198.R.V Average” value (Norm_20, normalized to Norm_0) was 1.105, the “p38.MAPK.R.V Average” value (Norm_20, normalized to Norm_0) was 0.992 and the “p38.MAPK._pT180_Y182.R.V Average” value (Norm_20, normalized to Norm_0) was 0.965. The “p38.a.M.V Average” value (Norm_20, normalized to Norm_0) was 0.909, the “p44.42.MAPK.R.V Average” value (Norm_20, normalized to Norm_0) was 1.224 and the “p53.R.C Average” value (Norm_20, normalized to Norm_0) was 1.197. The “p70.S6K1.R.V Average” value (Norm_20, normalized to Norm_0) was 1.144, the “p70.S6K_pT389.R.V Average” value (Norm_20, normalized to Norm_0) was 0.981 and the “p90RSK_pT573.R.C Average” value (Norm_20, normalized to Norm_0) was 0.937. The “PREX1.R.V normalized RPPA signal” value [1] was 1.049 and 0.907 and 1.063 and 1.006, the “PTEN.R.V normalized RPPA signal” value [1] was 1.227 and 1.032 and 1.101 and the “PTPN12.R.V normalized RPPA signal” value [1] was 0.953 and 1.002 and 1.471 and 1.142. For the same compound, the “PYGB.R.V normalized RPPA signal” value [1] was 1.322 and 1.252 and 1.214, the “PYGM.M.C normalized RPPA signal” value [1] was 0.919 and 1.127 and 1.743 and 1.263 and the “Puma.R.C normalized RPPA signal” value [1] was 1.011 and 1.199. For the same compound, the “Pyk2_pY402.R.C normalized RPPA signal” value [1] was 1.106 and 1.030 and 0.994, the “RBM15.R.V normalized RPPA signal” value [1] was 1.053 (2×) and 1.142 and 1.083 and the “RIP3.R.C normalized RPPA signal” value [1] was 1.022 and 0.957 and 0.979 and 0.986. For the same compound, the “RIP.R.C normalized RPPA signal” value [1] was 0.835 and 1.185 and 1.165 and 1.062, the “RPA32.R.V normalized RPPA signal” value [1] was 1.395 and 1.278 and 1.255 and the “RPA32_pS4_S8.R.C normalized RPPA signal” value [1] was 2.064 and 2.369 and 1.687 and 2.040. The “RRM1.R.C normalized RPPA signal” value [1] was 0.973 and 0.832 and 0.977 and 0.927, the “RRM2.R.C normalized RPPA signal” value [1] was 0.797 and 0.718 and 1.114 and 0.876 and the “RSK1.R.V normalized RPPA signal” value [1] was 1.025 and 1.192 and 1.102. The “RSK.R.C normalized RPPA signal” value [1] was 0.897 and 1.161, the “Rab11.R.C normalized RPPA signal” value [1] was 0.945 and 1.018 and the “Rab25.R.V normalized RPPA signal” value [1] was 1.022 and 0.964 and 0.955 and 0.980. For the same compound, the “Rad17_pS645.R.V normalized RPPA signal” value [1] was 0.978 and 0.844 and 0.971, the “Rad23A.R.C normalized RPPA signal” value [1] was 0.902 and 0.794 and 1.765 and 1.154 and the “Rad50.R.V normalized RPPA signal” value [1] was 1.096 and 1.085 and 1.310 and 1.164. For the same compound, the “Rad51.R.C normalized RPPA signal” value [1] was 0.693 and 0.792 and 0.842 and 0.776, the “Raptor.R.V normalized RPPA signal” value [1] was 0.796 and 0.917 and 1.035 and 0.916 and the “Rb.M.Q normalized RPPA signal” value [1] was 0.868 and 1.016 and 1.009 and 0.964. For the same compound, the “Rb_pS807_S811.R.V normalized RPPA signal” value [1] was 0.751 and 0.680 and 0.842, the “Rheb.M.C normalized RPPA signal” value [1] was 1.435 and 1.017 and 1.212 and the “Rictor.R.C normalized RPPA signal” value [1] was 0.973 and 1.010 and 1.009. The “Rictor_pT1135.R.V normalized RPPA signal” value [1] was 0.917 and 1.033 and 0.998, the “S6.M.V normalized RPPA signal” value [1] was 1.331 and 0.833 and the “S6_pS235_S236.R.V normalized RPPA signal” value [1] was 0.159 and 0.167 and 0.469 and 0.265. The “S6_pS240_S244.R.V normalized RPPA signal” value [1] was 0.113 and 0.501 and 0.240, the “SCD.M.V normalized RPPA signal” value [1] was 0.924 and 0.950 and 0.971 and the “SDHA.R.V normalized RPPA signal” value [1] was 1.123 and 1.101 and 1.057. The “SF2.R.V normalized RPPA signal” value [1] was 1.010 and 0.957, the “SFRP1.R.V normalized RPPA signal” value [1] was 0.979 and 1.009 and 0.863 and 0.950 and the “SGK1.R.V normalized RPPA signal” value [1] was 0.759 and 0.622 and 1.145 and 0.842. The “SGK3.R.V normalized RPPA signal” value [1] was 0.855 and 0.956 and 0.913 and 0.908, the “SHP2.R.V normalized RPPA signal” value [1] was 0.966 and 1.028 and 0.923 and 0.972 and the “SHP.2_pY542.R.C normalized RPPA signal” value [1] was 1.218 and 1.287 and 1.191. For the same compound, the “SIRPαR.V normalized RPPA signal” value [1] was 1.172 and 0.832 and 0.694 and 0.900, the “SLC1A5.R.C normalized RPPA signal” value [1] was 1.248 and 1.028 and 1.189 and 1.155 and the “SOD1.M.V normalized RPPA signal” value [1] was 0.834. For the same compound, the “SOD2.R.V normalized RPPA signal” value [1] was 1.108 and 1.226 and 0.894 and 1.076, the “SOX7.R.V normalized RPPA signal” value [1] was 1.078 and 1.212 and 1.083 and 1.124 and the “STING.R.V normalized RPPA signal” value [1] was 0.848 and 1.021.
